Experimental data as given in patent publication US11793867B2, “Neoantigens and uses thereof” (BIONTECH US INC., priority 2017, dated 2023).

Experiments:
CD8+ T cell responses = test: In vivo immunogenicity assay, longmers and shortmers sequentially (FIG. 3 regimen); parameters: species or system C57BL/6 mice; settings: CD8 T cells induced by Alg8 vaccination
Method: FIG. 3 illustrates exemplary administration regimen for peptides comprising neoepitopes. The top panel depicts administering a prime dose and boost of longmer. The middle panel depicts administering a prime dose and boost of shortmer. The lower panel depicts administering a prime dose of longmer and boost of shortmer. The boost dose is administered on day 7, 14, and day 21 after the prime dose.
Peptide-specific T cells are functionally enumerated using the ELISPOT assay (BD Biosciences), which measures the release of IFNγ from T cells on a single cell basis. Cells incubated with antigen overnight (16-18 hours) at 37° C. The next day, the cell suspension was discarded, and wells were washed once with PBS, and twice with deionized water. […] Substrate (3-amino-9-ethyl-carbazole, 0.1 M Acetate buffer, H2O2) was added to all wells, and spot development monitored (approximately 10 minutes). […] The plates were analyzed on an ELISPOT reader (Cellular Technology Ltd.) with accompanying software. […]
MHC tetramers were purchased or manufactured on-site, and were used to measure peptide-specific T cell expansion in the immunogenicity assays. […] The phenotype of cells was assessed using markers such as CD44, CD62L, KLRG1, CD127, PD-1, LAG-3 and TIM-3. […] Cells were acquired on a FACS Calibur (Becton Dickinson) instrument, and were analyzed by use of Cellquest software (Becton Dickinson). […]

[1] = in combination with a NYESO-1 peptide vaccine (in addition to Montanide); cited from earlier work
[2] = in humans; cited from earlier work

Row | TCR avidity (EC50) (CD8+ T cell responses) | Substance | patients showing induction of CD4+ and CD8+ T cell, as well as antibody responses to the peptide [1] [%] | CD4+ and CD8+ responses [2]
1 | similar | AVGITYTWTRLYASVLTGSLVSKTKK [Alg8, longmer murine neoantigen peptide, H-2Kb, T3 model] |  | 
2 | similar | ITYTWTRL [Alg8-shortmer] |  | 
3 |  | poly-ICLC | > 90 | durable CD4+ and CD8+ responses
